In patent US7728107B2 (priority 2005, dated 2010):
Read-outs that look alike come from different tables or passages of the source.

Legend:
canine 5-HT2B receptor [1] = target: T1, canine 5-HT2B receptor (Canis lupus familiaris, UniProt Q50DZ8); experiment: biochemical; format: binding; design: Apparent equilibrium dissociation constant KD; other: canine 5-HT2B, COS-7 membranes, mean ± S.E.M. (n = 3 to 6); other: COS-7 membranes; head prints [^3H]-ketanserin; mean ± S.E.M of 3-8 experiments; KD of radioligand; other: canine 5-HT2B, transfected COS-7 membranes; other: HEK-293, Ca^2+ FLIPR, mean ± S.E.M of 3 to 6 experime
canine 5-HT2A receptor [2] = target: T2, canine 5-HT2A receptor (Canis lupus familiaris, UniProt O46635); experiment: biochemical
canine 5-HT2A receptor [3] = target: T2, canine 5-HT2A receptor; experiment: cell-based; format: cell-based; design: The resulting 5-HT2A full length cDNA was cloned into the pCIneo vector; expressed in transfected cells; conditions: for Rel. eff. c5-HT2A: HEK-293, fraction of response to 10 μM 5-HT; for agonist potency at canine 5-HT2A compared to human 5-HT2A: Table 3
[4] = tested on: non-transfected cells (HEK-293, NIH3T3 or CHO); experiment: FLIPR Ca^2+ assay in non-transfected cells; format: cell-based; conditions: non-transfected HEK-293, CHO or NIH3T3 cells
Protocol: Dye-loaded cells were plated onto 96-well ViewPlates (Packard, Meriden, Conn.) and incubated at 37° C. and 5% CO2 for one hour. Once dye-loaded, dye media was replaced with serum-free DMEM/F-12. […] Ligand-induced Ca^2+ release was measured using a Fluorometric Imaging Plate Reader (FLIPR, Molecular Devices, Sunnyvale, Calif.). Functional responses were measured as peak fluorescence intensity minus basal. The concentration of agonist that produced a half-maximal response is represented by the EC50 value. […] Antagonistic potency values were converted to apparent pKB values using a modified Cheng-Prusoff correction. Apparent pKB=−log IC50/1+[conc agonist/EC50]. Data are expressed as mean±S.E.M.
None of the compounds (10 μM) tested elicited a response in non-transfected cells (HEK-293, NIH3T3 or CHO). In addition, none of the antagonists tested increased Ca^2+ in any of the transfected cell types.

human 5-HT2A receptor [5] = target: T3, human 5-HT2A receptor (Homo sapiens, UniProt P28223); experiment: cell-based; format: cell-based
T3 construct: expressed in transfected cells

canine 5-HT2B receptor [6] = target: T1, canine 5-HT2B receptor; experiment: cell-based; format: cell-based; design: Apparent equilibrium dissociation constant KD; other: canine 5-HT2B, COS-7 membranes, mean ± S.E.M. (n = 3 to 6); other: COS-7 membranes; head prints [^3H]-ketanserin; mean ± S.E.M of 3-8 experiments; KD of radioligand; other: canine 5-HT2B, transfected COS-7 membranes; other: HEK-293, Ca^2+ FLIPR, mean ± S.E.M of 3 to 6 experime; conditions: for Rel. eff. c5-HT2B: HEK-293, fraction of response to 10 μM 5-HT
canine 5-HT2B receptor [7] = experiment: biochemical; format: binding; conditions: ratio of binding affinities canine vs human 5-HT2B
human 5-HT2B receptor [8] = target: T4, human 5-HT2B receptor (Homo sapiens, UniProt P41595); experiment: cell-based; format: cell-based; conditions: for Rel. eff h5-HT2B: fraction of response to 10 μM 5-HT
T4 construct: expressed in transfected cells

human 5-HT2B receptor [9] = target: T4, human 5-HT2B receptor; experiment: biochemical; format: binding
human 5-HT2A receptor [10] = target: T3, human 5-HT2A receptor; experiment: biochemical; format: binding
canine 5-HT2A receptor [11] = target: T2, canine 5-HT2A receptor; conditions: for Ratio c5-HT2A vs. h5-HT2A: ratio of binding affinities canine vs human 5-HT2A
[12] = HEK-293, Ca^2+ FLIPR, apparent pKB, mean ± S.E.M of 3 to 6 experiments, read-out: Antagonist affinity pKB c5-HT2B (converted)
[13] = read-out: Affinity constant pKI c5-HT2B (converted)
[14] = CHO, Ca^2+ FLIPR, apparent pKB, mean ± S.E.M of 3 to 6 experiments, read-out: Antagonist affinity pKB h5-HT2B (converted)
[15] = read-out: Affinity constant pKI h5-HT2B (converted)
[16] = HEK-293, Ca^2+ FLIPR, apparent pKB, mean ± S.E.M of 3 to 6 experiments

T2 sequence (O46635 whole entry): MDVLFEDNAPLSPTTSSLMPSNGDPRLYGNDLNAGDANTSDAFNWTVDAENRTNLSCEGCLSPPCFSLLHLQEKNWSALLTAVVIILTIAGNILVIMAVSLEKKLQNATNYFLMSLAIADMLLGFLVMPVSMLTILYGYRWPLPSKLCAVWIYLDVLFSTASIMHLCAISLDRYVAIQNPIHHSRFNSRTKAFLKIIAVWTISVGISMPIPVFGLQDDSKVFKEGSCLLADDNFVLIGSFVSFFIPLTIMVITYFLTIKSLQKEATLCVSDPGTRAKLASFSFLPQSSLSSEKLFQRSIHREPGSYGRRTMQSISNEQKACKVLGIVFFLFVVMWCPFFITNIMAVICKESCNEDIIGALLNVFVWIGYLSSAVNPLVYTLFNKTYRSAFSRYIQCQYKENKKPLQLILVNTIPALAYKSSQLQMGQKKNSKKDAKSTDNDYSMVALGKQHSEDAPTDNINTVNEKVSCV
T3 sequence (P28223 whole entry): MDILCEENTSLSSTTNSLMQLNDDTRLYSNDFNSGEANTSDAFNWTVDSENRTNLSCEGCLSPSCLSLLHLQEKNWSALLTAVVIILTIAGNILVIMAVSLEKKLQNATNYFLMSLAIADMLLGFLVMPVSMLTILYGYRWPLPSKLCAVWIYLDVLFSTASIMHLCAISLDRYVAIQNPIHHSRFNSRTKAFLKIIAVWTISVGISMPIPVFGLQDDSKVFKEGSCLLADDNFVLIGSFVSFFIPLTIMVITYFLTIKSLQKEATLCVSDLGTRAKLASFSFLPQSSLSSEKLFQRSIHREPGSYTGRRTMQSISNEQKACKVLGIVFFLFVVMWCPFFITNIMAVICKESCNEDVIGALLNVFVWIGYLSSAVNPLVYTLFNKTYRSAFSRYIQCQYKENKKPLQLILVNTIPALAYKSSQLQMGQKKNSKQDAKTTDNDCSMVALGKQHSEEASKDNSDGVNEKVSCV
T4 sequence (P41595 whole entry): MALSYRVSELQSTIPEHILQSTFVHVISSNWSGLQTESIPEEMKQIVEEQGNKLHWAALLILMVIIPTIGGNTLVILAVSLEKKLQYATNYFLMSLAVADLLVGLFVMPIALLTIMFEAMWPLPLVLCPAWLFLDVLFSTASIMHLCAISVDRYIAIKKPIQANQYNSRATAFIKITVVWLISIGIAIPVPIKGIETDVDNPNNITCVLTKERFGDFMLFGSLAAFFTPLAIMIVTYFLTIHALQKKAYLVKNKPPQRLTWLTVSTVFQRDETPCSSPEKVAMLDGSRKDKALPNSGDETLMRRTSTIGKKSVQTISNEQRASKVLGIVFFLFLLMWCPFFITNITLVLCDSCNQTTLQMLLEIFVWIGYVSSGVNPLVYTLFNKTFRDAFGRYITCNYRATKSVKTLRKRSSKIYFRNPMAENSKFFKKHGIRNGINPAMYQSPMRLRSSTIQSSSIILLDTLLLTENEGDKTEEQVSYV

CN1C[C@@H](NS(=O)(=O)N(C)C)C[C@@H]2c3cccc4c3c(cn4C)C[C@H]21 [[^3H]-mesulergine]
Kd (canine 5-HT2B receptor [1]; canine 5-HT2B, transfected COS-7 membranes, read-out: KD of radioligand): 5.43 ± 0.69 nM

NCCc1c[nH]c2ccc(O)cc12 [5-HT, 5-hydroxytryptamine]
Ki (canine 5-HT2A receptor [2]): 178 nM | Rel. eff. c5-HT2A (canine 5-HT2A receptor [3]): 1 | peak fluorescence intensity of Ca^2+ response (canine 5-HT2A receptor [3]; canine 5-HT2A, HEK-293, FIG. 5A): 13600 peak fluorescence intensity units | Ca^2+ response in non-transfected cells [4]: No signal | Rel. eff. h5-HT2A (human 5-HT2A receptor [5]): 1 | peak fluorescence intensity of Ca^2+ response (human 5-HT2A receptor [5]): 15800 peak fluorescence intensity units

COC(=O)[C@@H]1[C@H]2C[C@H]3c4[nH]c5ccccc5c4CCN3C[C@@H]2CC[C@@H]1O [Yohimbine, yohimbine]
Kb (canine 5-HT2B receptor [6]): 1.58 nM | Ki (canine 5-HT2B receptor [1]): 81.3 nM

NCCc1c[nH]c2ccc(C(N)=O)cc12 [5-CT, 5-carboxyamidotryptamine]
Ratio c5-HT2B vs. h5-HT2B (canine 5-HT2B receptor [7]): 1.20 | Ki (canine 5-HT2A receptor [2]): 2290 nM | Rel. eff. c5-HT2B (canine 5-HT2B receptor [6]): 1.19 ± 0.05 | Rel. eff. c5-HT2A (canine 5-HT2A receptor [3]): 0.94 ± 0.08 | agonist potency at canine 5-HT2A compared to human 5-HT2A (canine 5-HT2A receptor [3]; functional Ca^2+ assay): higher potencies | Rel. eff h5-HT2B (human 5-HT2B receptor [8]; CHO): 0.95 ± 0.01 | Ki (canine 5-HT2B receptor [1]): 74.1 nM | Ki (human 5-HT2B receptor [9]): 61.7 nM | Ki (human 5-HT2A receptor [10]): 1150 nM | Rel. eff. h5-HT2A (human 5-HT2A receptor [5]): 0.70 ± 0.13 | Ratio c5-HT2A vs. h5-HT2A (canine 5-HT2A receptor [11]): 1.99

CC(N)Cc1c[nH]c2ccc(OCc3cccs3)cc12 (stereo not shown) [BW-723C86, 1-{5-(2-thienyl-methoxy)-1H-3-indolyl}propan-2-amine]
Rel. eff. c5-HT2B (canine 5-HT2B receptor [6]): 0.93 ± 0.03 | Rel. eff h5-HT2B (human 5-HT2B receptor [8]; CHO): 0.98 ± 0.01 | Ki (canine 5-HT2B receptor [1]): 26.3 nM

Clc1cccc(N2CCNCC2)c1 [m-CPP, 1-(3-chlorophenyl)piperazine]
Ki (canine 5-HT2A receptor [2]): 195 nM | agonistic response on canine 5-HT2B receptor (canine 5-HT2B receptor [6]; HEK-293, Ca^2+ FLIPR): no agonistic response | Rel. eff. c5-HT2A (canine 5-HT2A receptor [3]): 0.71 ± 0.04 | agonist potency at canine 5-HT2A compared to human 5-HT2A (canine 5-HT2A receptor [3]; functional Ca^2+ assay): higher potencies | Rel. eff h5-HT2B (human 5-HT2B receptor [8]; CHO): 0.55 ± 0.06 | Ki (canine 5-HT2B receptor [1]): 20.9 nM | Rel. eff. h5-HT2A (human 5-HT2A receptor [5]): 0.20 ± 0.02

COc1ccc2[nH]cc(C3=CCNCC3)c2c1 [RU-24969, 5-methoxy-3(1,2,3,6-tetrahydro-4-pyridiny)-1H-indole]
Ki (canine 5-HT2B receptor [1]): 12.9 nM

O=C(c1ccc(F)cc1)C1CCN(CCn2c(=O)[nH]c3ccccc3c2=O)CC1 [[^3H]-ketanserin]
Kd (canine 5-HT2A receptor [2]): 1.3 ± 0.12 nM

CN1C[C@@H](NS(=O)(=O)N(C)C)C[C@@H]2c3cccc4c3c(cn4C)C[C@H]21 [Mesulergine, mesulergine]
Ki (canine 5-HT2A receptor [2]): 91.2 nM | Kb (canine 5-HT2B receptor [6]; [12]): 0.501 nM | Kb (canine 5-HT2A receptor [3]): 25.1 nM | Kb (human 5-HT2B receptor [8]): 2.34 nM | Ki (canine 5-HT2B receptor [1]; [13]): 17 nM | Ki (human 5-HT2B receptor [9]): 8.71 nM | Ki (human 5-HT2A receptor [10]): 22.9 nM | Kb (human 5-HT2A receptor [5]): 58.9 nM

COc1cc(CC(C)N)c(OC)cc1I (stereo not shown) [DOI, 1-(2,5-dimethoxy-4-iodophenyl)-2-aminopropane]
Ki (canine 5-HT2A receptor [2]): 12 nM | Rel. eff. c5-HT2B (canine 5-HT2B receptor [6]): 0.75 ± 0.03 | Rel. eff. c5-HT2A (canine 5-HT2A receptor [3]): 0.89 ± 0.02 | Rel. eff h5-HT2B (human 5-HT2B receptor [8]; CHO): 0.96 ± 0.02 | Ki (canine 5-HT2B receptor [1]): 13.2 nM | Ki (human 5-HT2B receptor [9]): 15.1 nM | Rel. eff. h5-HT2A (human 5-HT2A receptor [5]): 0.65 ± 0.04

O=C(c1ccc(F)cc1)C1CCN(CCn2c(=O)[nH]c3ccccc3c2=O)CC1 [Ketanserin, ketanserin]
Ki (canine 5-HT2A receptor [2]): 14.5 nM | Kb (canine 5-HT2B receptor [6]): 1580 nM | Kb (canine 5-HT2A receptor [3]): 1.26 nM | Ki (canine 5-HT2B receptor [1]): 631 nM

Cc1cc(NC(=O)Nc2ccc3c(ccn3C)c2)sn1 [SB-204741, N-(1-methyl-5-in-dolyl)-N′-(3-methyl-5-isothiazolyl) urea]
Ki (canine 5-HT2A receptor [2]): > 10000 nM | Kb (canine 5-HT2B receptor [6]; [12]): 44.7 nM | Kb (canine 5-HT2A receptor [3]): > 10000 nM | Kb (human 5-HT2B receptor [8]; [14]): 44.7 nM | Ki (canine 5-HT2B receptor [1]; [13]): 182 nM | Ki (human 5-HT2B receptor [9]; [15]): 120 nM

CN1CCc2cc(Cl)c(O)cc2[C@@H](c2ccccc2)C1 [SCH-23390, R-(+)-7-chloro-8-hydroxy-3-methyl-1-phenyl-2,3,4,5-tetrahydro(1H)-3-benzapine]
Ki (canine 5-HT2A receptor [2]): 16.2 nM | Ki (canine 5-HT2B receptor [1]; [13]): 309 nM | Ki (human 5-HT2B receptor [9]; [15]): 275 nM | Ki (human 5-HT2A receptor [10]): 13.5 nM

CN(C)CCO/N=C(/C=C/c1ccc(O)cc1)c1ccccc1F [Eplivanserin, eplivanserin]
Ki (canine 5-HT2A receptor [2]): 1 nM | Kb (canine 5-HT2B receptor [6]; [12]): > 10000 nM | Kb (canine 5-HT2A receptor [3]; HEK-293, Ca^2+ FLIPR, apparent pKB, mean ± S.E.M of 3 to 6 experiments, read-out: Antagonist affinity pKB c5-HT2A (converted)): 0.251 nM | Kb (human 5-HT2B receptor [8]; [14]): > 10000 nM | Ki (canine 5-HT2B receptor [1]; [13]): 1910 nM | Ki (human 5-HT2B receptor [9]; [15]): 1410 nM | Ki (human 5-HT2A receptor [10]; read-out: Affinity constant pKI h5-HT2A (converted)): 0.2 nM | Kb (human 5-HT2A receptor [5]; NIH3T3, Ca^2+ FLIPR, apparent pKB, mean ± S.E.M of 3 to 6 experiments, read-out: Antagonist affinity pKB h5-HT2A (converted)): 0.372 nM

FC(F)(F)c1cccc(N2CCNCC2)c1 [TFMPP, N-(3-trifluoromethyl-henyl)piperazine]
Ratio c5-HT2B vs. h5-HT2B (canine 5-HT2B receptor [7]): 1.04 | Ki (canine 5-HT2A receptor [2]): 214 nM | agonistic response on canine 5-HT2B receptor (canine 5-HT2B receptor [6]; HEK-293, Ca^2+ FLIPR): no agonistic response | Rel. eff. c5-HT2A (canine 5-HT2A receptor [3]): 0.72 ± 0.04 | agonist potency at canine 5-HT2A compared to human 5-HT2A (canine 5-HT2A receptor [3]; functional Ca^2+ assay): higher potencies | Rel. eff h5-HT2B (human 5-HT2B receptor [8]; CHO): 0.49 ± 0.04 | Ki (canine 5-HT2B receptor [1]): 41.7 nM | Affinity constant pKI h5-HT2B (human 5-HT2B receptor [9]; CHO membranes, head: [^3H]-mesulergine, mean ± S.E.M of 3-8 experiments): 7.40 ± 0.05 | Ki (human 5-HT2A receptor [10]): 87.1 nM | Rel. eff. h5-HT2A (human 5-HT2A receptor [5]): 0.17 ± 0.01 | Ratio c5-HT2A vs. h5-HT2A (canine 5-HT2A receptor [11]): 2.45

CSc1ccc2c(c1)C(N1CCN(C)CC1)Cc1ccccc1S2 (stereo not shown) [Methiothepin, methiothepin]
Antagonist affinity pKB c5-HT2B (canine 5-HT2B receptor [6]; [16]): 8.07 ± 0.77 | Antagonist affinity pKB c5-HT2A (canine 5-HT2A receptor [3]; [16]): 8.33 ± 0.09 | antagonist affinity for canine 5-HT2A receptor compared to human 5-HT2A receptor (canine 5-HT2A receptor [3]; functional Ca^2+ assay, Table 4): eleven-fold higher affinity | Affinity constant pKI c5-HT2B (canine 5-HT2B receptor [1]; COS-7 membranes, head prints [^3H]-ketanserin, mean ± S.E.M of 3-8 experiments): 8.12 ± 0.16 | Ki (canine 5-HT2A receptor [11]): 3.55 nM

Cc1nc2sccn2c(=O)c1CCN1CCC(=C(c2ccc(F)cc2)c2ccc(F)cc2)CC1 [Ritanserin, ritanserin]
Ki (canine 5-HT2A receptor [2]): 7.59 nM | Kb (canine 5-HT2B receptor [6]): 10 nM | Kb (canine 5-HT2A receptor [3]): 7.08 nM | Kb (human 5-HT2B receptor [8]): 5.89 nM | Ki (canine 5-HT2B receptor [1]): 3.98 nM | Ki (human 5-HT2B receptor [9]): 4.57 nM
